{"source": "patent US20260014110A1", "about": "“RETINOIC ACID-ALCOHOL AMINE COMPLEX, PREPARATION METHOD AND APPLICATION THEREOF” (NANJING INDETEK LABORATORY CO., LTD., priority 2022, published 2026)", "origin": "cited, not measured here", "note": "Read-outs that look alike come from different tables or passages of the source.", "data": [{"smiles": "CC1=C(/C=C/C(C)=C/C=C/C(C)=C/C(=O)O)C(C)(C)CCC1", "note": "[retinoic acid]", "values": [{"measurement": "solubility in water", "setting": "Chinese Pharmacopoeia 2020, volume II", "value": "extremely difficult to dissolve in water"}, {"measurement": "solubility in water", "setting": "literature (Ascenso et al. 2011)", "value": 1.06, "unit": "µM"}]}]}
